Values quoted from earlier work, collected in US12390432B2, “Methods for treating allan-herndon-dudley syndrome” (PriZm, LLC, priority 2022, dated 2025).

Conditions: literature report, Groeneweg et al. Lancet Diabetes Endocrinol. 2019; cited from earlier work

Compound: O=C(O)Cc1cc(I)c(Oc2ccc(O)c(I)c2)c(I)c1 [TRIAC, triiodothyroacetic acid]
- thyroxine (T4) serum levels: significantly reduce
